{"source": "patent US10950327B2", "about": "“Methods and tools for detecting, diagnosing, predicting, prognosticating, or treating a neurobehavioral phenotype in a subject” (BlackThorn Therapeutics, Inc., priority 2017, dated 2021)", "origin": "cited, not measured here", "key": {"[1]": {"tested_on": "mean functional connectivity (Global Brain Connectivity, GBC)", "conditions": "healthy human subjects"}, "[2]": {"tested_on": "patients with schizophrenia"}, "[3]": {"conditions": "in vivo"}, "5HT6 receptors": {"biological_target": "5HT6 receptors (Homo sapiens, UniProt P50406)", "sequence (P50406 whole entry)": "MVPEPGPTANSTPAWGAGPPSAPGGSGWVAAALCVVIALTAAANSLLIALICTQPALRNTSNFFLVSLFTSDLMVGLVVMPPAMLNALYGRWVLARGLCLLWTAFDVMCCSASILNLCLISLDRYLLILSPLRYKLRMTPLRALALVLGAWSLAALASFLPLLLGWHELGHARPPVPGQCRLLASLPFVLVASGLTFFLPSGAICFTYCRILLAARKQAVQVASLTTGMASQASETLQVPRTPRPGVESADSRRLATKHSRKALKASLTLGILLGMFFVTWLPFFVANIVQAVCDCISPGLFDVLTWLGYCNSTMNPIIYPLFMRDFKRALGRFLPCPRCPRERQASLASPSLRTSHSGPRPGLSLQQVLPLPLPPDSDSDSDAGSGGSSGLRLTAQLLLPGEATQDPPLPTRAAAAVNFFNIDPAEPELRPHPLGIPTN"}, "[4]": {"biological_target": "muscarinic M3 (CHRM3) receptor (Homo sapiens, UniProt P20309)", "sequence (P20309 whole entry)": "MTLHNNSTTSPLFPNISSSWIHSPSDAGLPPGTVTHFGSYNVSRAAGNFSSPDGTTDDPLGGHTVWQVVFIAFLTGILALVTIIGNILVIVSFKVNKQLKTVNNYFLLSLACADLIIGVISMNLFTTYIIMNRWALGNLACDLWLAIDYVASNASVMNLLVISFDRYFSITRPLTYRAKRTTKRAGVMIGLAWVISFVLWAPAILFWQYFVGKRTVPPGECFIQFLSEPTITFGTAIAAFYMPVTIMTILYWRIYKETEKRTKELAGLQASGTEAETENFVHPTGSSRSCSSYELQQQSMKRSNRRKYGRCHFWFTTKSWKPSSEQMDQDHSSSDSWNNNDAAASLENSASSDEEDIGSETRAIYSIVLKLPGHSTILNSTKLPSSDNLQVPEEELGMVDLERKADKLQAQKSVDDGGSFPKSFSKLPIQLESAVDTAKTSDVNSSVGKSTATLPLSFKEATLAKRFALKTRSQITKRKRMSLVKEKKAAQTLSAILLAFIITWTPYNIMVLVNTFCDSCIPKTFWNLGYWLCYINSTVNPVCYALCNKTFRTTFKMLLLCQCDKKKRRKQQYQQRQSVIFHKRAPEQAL"}}, "data": [{"smiles": "CCN(CC)C(=O)[C@@H]1C=C2c3cccc4[nH]cc(c34)C[C@H]2N(C)C1", "note": "[LSD, lysergic acid diethylamide]", "values": [{"measurement": "change in mean functional connectivity (Global Brain Connectivity, GBC)", "setting": "[1]; acute administration, fMRI-derived cortical map", "result": "large increase in occipital visual cortex"}]}, {"smiles": "Cc1nc2cccc(C(F)(F)F)c2c(=O)n1-c1ccc(OCCCN2CCCC2)cc1", "note": "[MK-0249]", "values": [{"measurement": "improvement of cognitive deficits", "setting": "[2]", "result": "failed to improve cognitive deficits"}]}, {"smiles": "O=C1Nc2ccc(Cl)cc2[C@@](C#CC2CC2)(C(F)(F)F)O1", "note": "[efavirenz]", "values": [{"measurement": "risk of neuropsychiatric symptoms", "setting": "[3]", "result": "increase the risk of neuropsychiatric symptoms"}, {"measurement": "activity at 5HT6 receptors", "setting": "5HT6 receptors", "result": "inverse agonist activity"}, {"measurement": "suppression of HIV-1", "setting": "HIV-1", "result": "effective in suppressing HIV-1"}, {"measurement": "activity at muscarinic M3 (CHRM3) receptor", "setting": "[4]", "result": "antagonist activity"}]}, {"smiles": "O=C(c1ccc(F)cc1)C1CCN(CCn2c(=O)[nH]c3ccccc3c2=O)CC1", "note": "[ketanserin]", "values": [{"measurement": "effect on LSD-induced neural change and behavioral effects", "setting": "[1]; pre-administration before LSD", "result": "blocked"}]}]}
